In patent US9913838B2, “Methods of treating cancer using compositions comprising perillyl alcohol derivative” (NEONC TECHNOLOGIES INC., priority 2010, dated 2018):
“Also recorded” adds a separate entry of the source.

Assays:
[1] = test system: T47D; assay: Colony formation assay, T47D; assay type: cell-based, human; conditions: for IC50: Homo sapiens, 48 h, read-out: IC50 (concentration required to decrease colony formation by 50%)
Experimental: Depending on the cell line (and plating efficiency), 200-350 cells were seeded into each well of a 6-well plate. […] Thereafter, the drugs were removed, fresh growth medium was added, and the cells were kept in culture undisturbed for 12-16 days, during which time the surviving cells spawned colonies of descendants. Colonies (defined as groups of >50 cells) were visualized by staining for 4 hours with 1% methylene blue (in methanol), and then were counted.
The cytotoxic potency of TMZ-POH, was analyzed by colony formation assay (CFA) in a variety of human breast cancer cell lines and compared to the cytotoxicity of TMZ. We used estrogen receptor positive cells MCF7 and T47D, the triple-negative lines MDA-MB-231, MDA-MB-468, and HCC-1937, and a brain-seeking variant of the 231 cell line, MDA-MB-231-br.

[2] = test system: USC-02 glioma cancer stem cells; assay: MTT cytotoxicity assay, USC-02 glioma cancer stem cells; assay type: cell-based
From the text: Cancer Lett. 2011 Mar. 28; 302(2):100-8.

[3] = test system: TMZ sensitive (U251) cells; assay: Colony forming assay, TMZ sensitive U251 cells; assay type: cell-based, human; conditions: in words
Experimental: Colony forming assays were carried out after cells were treated with TMZ alone, POH alone, and the TMZ-POH conjugate. […] Cancer Lett. 2011 Mar. 28; 302(2):100-8.

[4] = test system: U87 human glioma cells; assay: MTT cytotoxicity assay, U87 glioma cells; conditions: U87; result in words
From the text: In vitro efficacy of the present composition can be determined using methods well known in the art. For example, the cytoxicity of the present monoterpene (or sesquiterpene) and/or the therapeutic agents may be studied by MTT [3-(4,5-dimethylthiazol-2-yl)-2,5-diphenyl tetrazolium bromide] cytotoxicity assay. MTT assay is based on the principle of uptake of MTT, a tetrazolium salt, by metabolically active cells where it is metabolized into a blue colored formazon product, which can be read spectrometrically. J. of Immunological Methods 65: 55 63, 1983. The cytoxicity of the present monoterpene (or sesquiterpene) derivative and/or the therapeutic agents may be studied by colony formation assay. Functional assays for inhibition of VEGF secretion and IL-8 secretion may be performed via ELISA. Cell cycle block by the present monoterpene (or sesquiterpene) derivative and/or the therapeutic agents may be studied by standard propidium iodide (PI) staining and flow cytometry. Invasion inhibition may be studied by Boyden chambers. In this assay a layer of reconstituted basement membrane, Matrigel, is coated onto chemotaxis filters and acts as a barrier to the migration of cells in the Boyden chambers. Only cells with invasive capacity can cross the Matrigel barrier. Other assays include, but are not limited to cell viability assays, apoptosis assays, and morphological assays.
First cytotoxicity assays were carried out after cells were treated with dimethyl-celecoxib (DMC) alone.
Then U87, A172 and U251 cells were treated with dimethyl celecoxib bisPOH carbamate (POH−DMC) (e.g., synthesized by the method in Example 1), and the MTT cytotoxicity assays performed (FIG. 2).
First cytotoxicity assays were carried out after cells were treated with temozolomide (TMZ) alone, the standard alkylating agent used in the treatment of malignant gliomas.
Then TMZ-resistant glioma cell lines U87, A172 and U251 cells were treated with TMZ-POH (e.g., synthesized by the method in Example 3).
To compare the cytotoxicity of Rolipram POH Carbamate (POH-Rolipram) (e.g., synthesized by the method in Example 5) with rolipram, […] inducing differentiation and apoptosis in glioma cells, A172, U87, U251 and LN229 human glioma cells were treated with either POH-Rolipram or rolipram for 48 hours.

[5] = test system: MDA-MB-231 cells; assay: Determination of drug stability by colony formation assay; assay type: cell-based, human; conditions: for colony survival: drugs in the medium for 24 hours; for reduction of colony formation: one-hour exposure; for survival: two-hour exposure; for reduction of survival: added straight to cells, 24 hours; for colony-forming ability of receiving cells: supernatant transferred after prior one-hour incubation
Experimental: FIGS. 26A-26C depicts determination of drug stability, where MDA-MB-231 cells were analyzed in colony formation assays. In FIG. 26A, cells were treated with 15 μM TMZ-POH or 30 μM TMZ for 30 min or 1, 2, 4, and 24 hours. Thereafter, drug-containing medium was removed, fresh medium (without drug) was added, and cells remained undisturbed until colony staining 12 days later. The arrows indicate which cells received which supernatant. After 24 hours of incubation, all drug-containing medium was removed, fresh medium (without drug) was added, and cells remained undisturbed until colony staining 12 days later. […] Left panel (untreated): control cells without drug treatment. Middle panel (0-24 h): Cells received 15 μM TMZ-POH or 30 μM TMZ for 24 hours. Right panel (1-25 h): TMZ-POH and TMZ were incubated in neutral buffer at 37° C. for 1 hour before addition to cells to a final concentration of 15 μM TMZ-POH and 30 μM TMZ for 24 hours.
TMZ is a prodrug, and it is well known that its activation takes place spontaneously in aqueous solution at 37° C. (i.e., no cellular functions are required for this conversion). As well, the half-lives of both prodrug and active product are fairly short, where all cytotoxic triggers are set within the first few hours of treatment. […] First, we exposed cells to variably short periods of drug treatment, washed off the drug, and then continued to keep cells in medium without drug to determine survival and colony-forming ability. For most of these experiments, we used 15 μM TMZ-POH and 30 μM TMZ, because these concentrations are approximately equipotent in the >90% cytotoxicity range (when measured by CFAs and a drug exposure time of 24 hours).
Thus, TMZ acted more quickly than TMZ-POH; it required only 4 hours to exert maximum toxicity, whereas TMZ-POH had not yet reached its maximum impact at this time point.
We next modified this experiment as follows. After cells had been exposed to drug treatment for the specific times shown in FIG. 26A, we removed the medium containing the drug from the cells, and transferred this supernatant to fresh cells, which were then exposed for 24 hours. […] In contrast, when supernatant was transferred after prior one-hour incubation, colony-forming ability of receiving cells was 48% in cells receiving TMZ-containing supernatant, and 22% in TMZ-POH-containing supernatant.
To exclude the involvement of cellular enzymes in the turnover of TMZ-POH, we incubated TMZ-POH (and TMZ) in phosphate-buffered saline at 37° C. for one hour (in the absence of cells). After this pre-incubation, TMZ-POH and TMZ were added to cells for 24 hours, and survival was determined by CFA. As a control, both drugs were also added to cells without prior incubation in aqueous solution. A representative CFA is shown in FIG. 26C, where the middle panel confirms that both drugs were used at approximately equipotent concentrations; i.e., when added straight to cells, they reduced survival by ˜95%. However, pre-incubation in aqueous solution for only one hour preempted the cytotoxic potency of TMZ by about 50%, but that of TMZ-POH much less (80% remaining; see right panel).

| Compound | IC50 ([1]; T47D) | cytotoxicity (MTT assay) ([2]; TMZ 0-400 uM, POH 0-2 mM, in words) | cytotoxicity (colony forming assay) [3] | cytotoxicity (MTT assay) [4] | colony survival ([5]; 15 μM TMZ-POH or 30 μM TMZ) | reduction of colony formation ([5]; 15 μM TMZ-POH or 30 μM TMZ) | survival ([5]; 15 μM TMZ-POH or 30 μM TMZ) | reduction of survival ([5]; 15 μM TMZ-POH or 30 μM TMZ) | colony-forming ability of receiving cells [5] | Differential (−fold) ([1]; fold increase in potency of TMZ-POH compared to TMZ, T47D) | colony formation (CFA) ([1]; low micromolar concentrations, 48 hours, in words) | IC50 ([2]; read-out: cytotoxicity with 1050) | time required to exert maximum toxicity ([5]; 15 μM TMZ-POH or 30 μM TMZ) | stability / retention of cytotoxic potency ([5]; in words) | cytotoxic potency remaining after pre-incubation ([5]; phosphate-buffered saline at 37° C. for one hour, absence of cells) | cytotoxic activity of supernatant transferred after prior 24-hours of incubation ([5]; receiving cells exposed 24 hours, in words) |
| --- | --- | --- | --- | --- | --- | --- | --- | --- | --- | --- | --- | --- | --- | --- | --- | --- |
| Cn1nnc2c(C(N)=O)ncn2c1=O [TMZ, temozolomide, reference compound] | 20 µM | did not induce significant cytotoxicity | demonstrated cytotoxicity | minimal cytotoxicity | ~8% | > 50% | 23% | ~95% | 48% |  |  |  |  |  |  |  |
| C=C(C)[C@@H]1CC=C(COC(=O)NC(=O)c2ncn3c(=O)n(C)nnc23)CC1 [TMZ-POH] | 4.6 µM |  | demonstrated cytotoxicity; also recorded: substantially greater potency compared to POH alone | substantially higher kill rates | about 3% | 20% | 51% | ~95% | 22% | 4.3 −fold | prevented colony formation | 60 µM | > 4 h | retained its cytotoxic potency substantially longer than TMZ; also recorded: more stable than TMZ | 80% | no cytotoxic activity remained |
